Measured values as given in patent US11633400B2.
Values belong to the compound of their own block, whether it stands above or below them.

Assays:
[1] = Water content by TG-FTIR; conditions: sample according to Example 1; relative humidity of about 35%
[2] = Hygroscopicity by dynamic water vapor sorption analysis (DVS)
[3] = cited from earlier work; for aqueous solubility: at room temperature, known values

water content (TG-FTIR) [1]: about 8.9 % w/w
change of water content ([2]; DVS, range from 20% to 80% relative humidity): about 2%
water adsorption compared with the crystalline polymorphic forms of the calcium salt ([2]; under changing relative humidity): significantly lower
SMILES: CN1c2c(nc(N)[nH]c2=O)NC[C@@H]1CNc1ccc(C(=O)N[C@@H](CCC(=O)O)C(=O)O)cc1.OCCN1CCOCC1

SMILES: CN1c2c([nH]c(N)nc2=O)NC[C@@H]1CNc1ccc(C(=O)N[C@@H](CCC(=O)O)C(=O)O)cc1
solubility in water (in words) ([3]; water): poorly soluble

SMILES: CN1c2c([nH]c(N)nc2=O)NC[C@@H]1CNc1ccc(C(=O)N[C@@H](CCC(=O)[O-])C(=O)[O-])cc1.[Ca+2] [calcium salt (Form III)]
aqueous solubility [3]: about 2.5 mg/ml

SMILES: CN1c2c([nH]c(N)nc2=O)NC[C@@H]1CNc1ccc(C(=O)N[C@@H](CCC(=O)[O-])C(=O)[O-])cc1.[Ca+2] [Form I]
aqueous solubility [3]: about 10 mg/ml
